Test results published in patent US20090325805A1, “Cationic surfactant based adjuvant systems for some herbicides that increase pH, herbicide solubility and performance” (priority 2004, published 2009).

What was measured:
Format in all cases: in vivo
Wild Oat (Avena fatua) = test: Post-emergence herbicide efficacy (percent control) on wild oats with differing spray adjuvants; details: Sulfosulfuron 0.66 oz/Acre; for Wild Oat % Control 14 DAT: 14 days after treatment; for Wild Oat % Control 28 DAT: 28 days after treatment
From the text: This invention pertains to the unexpected increase in activity seen when sulfosulfuron was applied with a cat-ionic surfactant plus a pH adjustor that increased the pH to a pH of 9-10.5 (Table 1). As opposed to the increase in activity that was predicted to happen when applied with an oil based or non-ionic surfactant with a pH adjustor as taught by Nalewaja et. al. This effect has been seen with both wild oat (Avena fatua) Table 1 and downy brome (Bromus tectorum) Table 2. The increase in activity has been seen with different formulation of tallow amine cat-ionic surfactant and a pH increasing additive (Table 3). [table]

[1] = system: Downy Brome (Bromus tectorum); test: Herbicide efficacy (percent control) on downy brome with differing spray adjuvants (Table 2); design: concentration or dose not given beside the values; details: for Downy Brome % Control 21 DAT: 21 days after treatment; for Downy Brome % Control 68 DAT: 68 days after treatment
From the text: (§1) This effect has been seen with both wild oat (Avena fatua) Table 1 and downy brome (Bromus tectorum) Table 2. The increase in activity has been seen with different formulation of tallow amine cat-ionic surfactant and a pH increasing additive (Table 3). [table]

[2] = system: Downy Brome (Bromus tectorum); test: Sulfosulfuron efficacy (percent control) on downy brome with differing tallow amine adjuvant formulations (Table 3); design: concentration or dose not given beside the values; details: for Downy Brome % Control 17 DAT: 17 days after treatment; for Downy Brome % Control 87 DAT: 87 days after treatment
From the text: as §1

[3] = adjuvant AQ118 (tallow amine plus aqua ammonia)
[4] = adjuvant Quad 7 (crop oil plus nitrogen fertilizer)
[5] = adjuvant AQ117 (tallow amine plus aqua ammonia)
[6] = adjuvant R-11 (non-ionic surfactant)
[7] = adjuvant AQ103 (tallow amine plus aqua ammonia)
[8] = adjuvant AQ104 (tallow amine plus aqua ammonia)

| SMILES | Wild Oat % Control 14 DAT (Wild Oat (Avena fatua); [3]) | Wild Oat % Control 28 DAT (Wild Oat (Avena fatua); [3]) | Wild Oat % Control 14 DAT (Wild Oat (Avena fatua); [4]) | Wild Oat % Control 28 DAT (Wild Oat (Avena fatua); [4]) | Downy Brome % Control 21 DAT [1, 5] | Downy Brome % Control 68 DAT [1, 5] | Downy Brome % Control 21 DAT [1, 6] | Downy Brome % Control 68 DAT [1, 6] | Downy Brome % Control 17 DAT [2, 7] | Downy Brome % Control 87 DAT [2, 7] | Downy Brome % Control 17 DAT [2, 8] | Downy Brome % Control 87 DAT [2, 8] | Downy Brome % Control 17 DAT [2, 6] | Downy Brome % Control 87 DAT [2, 6] |
| --- | --- | --- | --- | --- | --- | --- | --- | --- | --- | --- | --- | --- | --- | --- |
| CCS(=O)(=O)c1nc2ccccn2c1S(=O)(=O)NC(=O)Nc1nc(OC)cc(OC)n1 [Sulfosulfuron] | 75% | 98% | 48% | 62% | 78% | 97% | 52% | 62% | 30% | 92% | 30% | 90% | 5% | 77% |
| CCCOc1nn(C(=O)[N-]S(=O)(=O)c2ccccc2C(=O)OC)c(=O)n1C.[Na+] [Propoxycarbazone, Propoxycarbazone-sodium] | – | – | – | – | 73% | 90% | 52% | 67% | – | – | – | – | – | – |
